Experimental data published in US20090054376A1, “BENZOFURAN DERIVATIVES WITH THERAPEUTIC ACTIVITIES” (Pharmos Corporation, priority 2005, published 2009).

Key:
IL-10 = test: Gene expression in LPS activated RAW 264.7 macrophages, IL-10; type: cell-based, mouse; details: RAW 264.7, 10 μM, LPS 1 μg/ml, RNA 3 hrs after activation
Protocol: RAW 264.7 macrophages, a mouse cell line (ATCC # TIB 71), were grown in Dulbecco's modified Eagle's medium (DMEM) with 4 mM L-glutamine adjusted to contain 1.5 g/L sodium bicarbonate, 4.5 g/L glucose, and 10% heat inactivated fetal bovine serum. Cells were grown in tissue culture flasks and seeded at appropriate density into 6 wells tissue culture plates. Four million Raw cells in half a milliliter were stimulated with 1 μg/ml LPS E. coli 055:B5 (DIFCO Laboratories). The mouse macrophages were pre-treated for one hour with controls or 10 μM of test compounds, and later on activated with LPS. RNA samples were extracted from the cells 3 hrs after activation and gene expression levels were analyzed by real-time RT-PCR. In parallel, supernatants were collected and secretion of inflammatory mediators was analyzed using ELISA techniques according to the instructions of the kit manufacturer.
Total RNA is prepared using SV total RNA isolation system (Promega). The cells were homogenized in lysis buffer. […] RNA concentrations were determined using GeneQuant II (Pharmacia-Amersham). […] Quantitative real-time RT-PCR included 1 μl of the cDNA, 300 nM of the appropriate forward and reverse primers (according to the gene monitored) and 7.5 μl of the reaction mix containing buffer, nucleotides, Taq polymerase and SYBER green (SYBER Green master mix, Applied Biosystems), in a total reaction volume of 15 μl. […]

[1] = test system: CFA induced rheumatoid arthritis; test: CFA induced rheumatoid arthritis; type: in vivo, Female Lewis rats
Protocol: Female Lewis rats (125 g average body weight, Harlan, Israel), at least eight per treatment group were used in this study. CFA was prepared by combining 100 mg of Mycobacterium Tuberculosis (Difco) with 5 ml of incomplete Freund's adjuvant and grinding for about 3 minutes the resulting mixture until a brownish suspension was obtained. The CFA suspension was administered s.c. at the base of the tail, 0.2 ml/animal. Three tests were performed to evaluate the pain and inflammation caused by the disease. These tests were performed before CFA injection to establish baseline values and 14, 21 and 28 days after disease induction. Compounds of the invention were administered daily for fourteen days p.o. at a dose of 10 mg/kg starting on day 14, after disease onset. A group of animals treated with vehicle only at 5 ml/kg served as control.
The parameters monitored were as detailed in Example 18 and include paw edema and redness, and response to thermal and mechanical pain stimuli. At the end of the treatment period the animals were euthanized. The paws were cut and stored in a solution of 4% formalin until histopathological evaluation.
The differences among various treatment groups between the severity of the clinical signs, as expressed by paw swelling and redness, as well as the differences in pain responses, as expressed by Latency Time (sec) and Force (g) needed to observe withdrawal of the paw following thermal and mechanical stimuli, and finally the tissue damage, as expressed by the histological scores, were compared using analysis of variance ANOVA followed by post-hoc t-Test. A value of p<0.05 is considered to be statistically significant.

[2] = test system: PLP induced remitting-relapsing EAE; test: PLP induced remitting-relapsing EAE; type: in vivo, SJL female mice; details: for average clinical score on the first peak of the disease: vehicle 3.63±0.25; for average clinical score at the second peak of the disease (first relapse): vehicle 3.14±0.48; for reduction in average clinical score at peak as compared to vehicle: first peak; for AUC of clinical score: over 23 days, vehicle 54.13±9.58; for reduction in average clinical score as compared to vehicle: second peak

With `CCCCC(C)(C)c1cc(O)c2c(c1)OC1C2CCC(C)(C)C1O` (stereo not drawn) [Compound C6S-7, 3-(1,1-dimethylpentyl)-7,7-dimethyl-5a,6,7,8,9,9a-hexahydro-dibenzofuran-1,6-diol] the “Percent inhibition of gene expression, IL-10” value (IL-10) was 33%.
With `CCCCCCC(C)(C)c1cc(O)c2c(c1)OC1C(O)CCCCC21` (stereo not drawn) [Compound C7S-2, 2-(1,1-dimethylheptyl)-5,6,7,8,9,9a-hexahydro-4bH-10-oxa-benzo[α]azulen-4,9-diol] the “decrease in clinical score as compared to first day of treatment” value ([1]; after two weeks of treatment, 10 mg/kg p.o.) was 44%, the “average clinical score regarding the edema” value ([1]; after two weeks of treatment, 10 mg/kg p.o. daily, vehicle 6.67±1.85) was 3.29±0.97 and the “average clinical score regarding the edema” value ([1]; day 14, at initiation of treatment, 10 mg/kg p.o. group, vehicle 6.00±1.18) was 5.86±1.70. For the same compound, the “difference in average clinical score in favor of treated animals” value ([1]; day 21, after a week of treatment, 10 mg/kg p.o. daily, vs vehicle) was 1.89 unit, the “Force increase over baseline” value ([1]; day 28, 10 mg/kg p.o.) was “about 63%” and the “Latency increase over baseline values of day 14” value ([1]; day 28, 10 mg/kg p.o.) was “more than 32%”. The “Latency prolonged following thermal stimulus” value ([1]; day 28 vs day 14, 10 mg/kg p.o.) was “about 5 seconds”, the “increase of Force needed to elicit a withdrawal response” value ([1]; day 28 vs day 14, 10 mg/kg p.o., mechanical stimulus) was 11.1 grams and the “average clinical score on the first peak of the disease” value ([2]; 5 mg/kg p.o. daily for 10 days) was 2.78±0.15. For the same compound, the “average clinical score at the second peak of the disease (first relapse)” value ([2]; 5 mg/kg p.o.) was 1.25±0.41, the “average clinical score on the first peak of the disease” value ([2]; 10 mg/kg i.p. daily for 10 days) was 2.43±0.26 and the “average clinical score at the second peak of the disease (first relapse)” value ([2]; 10 mg/kg i.p.) was 0.57±0.11. The “reduction in average clinical score at peak as compared to vehicle” value ([2]; 5 mg/kg p.o.) was 23%, the “reduction in average clinical score at peak as compared to vehicle” value ([2]; 10 mg/kg i.p.) was 33% and the “reduction of overall severity of the disease (expressed in AUC)” value ([2]; i.p.) was 64%. The “AUC of clinical score” value ([2]; 5 mg/kg p.o.) was 28.13±5.74, the “AUC of clinical score” value ([2]; 10 mg/kg i.p.) was 19.43±2.51 and the “reduction of overall severity of the disease (expressed in AUC)” value ([2]; p.o.) was 48%. The “reduction in average clinical score as compared to vehicle” value ([2]; i.p.) was 82% and the “reduction in average clinical score as compared to vehicle” value ([2]; p.o.) was 60%.
